# Experimental data taken from patent publication US20110098180A1, “Herbicide-Resistant Plants, And Polynucleotides And Methods For Providing Same” (United States Department of Agriculture, priority 2002, published 2011).
# Legend:
# [1] = target: Hydrilla PDS Arg^304 Arginine (wildtype) (Hydrilla verticillata, UniProt Q66PY0); assay: Fluridone enzyme inhibition assay, non-His-tagged PDS (Table 1); type: biochemical; settings: Arginine at 304 (reference)
# Description: The expression constructs in Table 1 were derived from an original clone of the susceptible PDS gene from Hydrilla and then the Arg^304 was mutated to the listed amino acid. Expression was under the control of the lac promoter […] with the initiation codon of the LacZalpha-ccdB gene in the pCR4-TOPO vector (Invitrogen Inc., CA, Cat. #K4575-01).
# All mutagenesis was performed, unless stated otherwise, using the TOPO-vector containing the wildtype (H4) PDS-sequence, which was extracted from an overnight culture with the Qiagen Plasmid Prep Kit as described above. The amount of the extracted plasmid was diluted to 10 ng/μl and used as template in a mutagenesis-procedure using the QuikChange Site-directed Mutagenesis Kit (Stratagene, Calif., #200518). The design of the mutagenesis-primers was conducted according to the manufacturers protocol to enable the specific change of Arg^304-codon to code for the desired amino acid. Primers (purchased from MWG-Biotech) and their introduced amino acid change are listed below with the changed codon underlined:
# The reactions were performed according to the manufacturers protocol. […] Sequences were assembled and analyzed using Seqman. […]
# Phytoene desaturase activity and its inhibition by herbicides was determined using an in vitro system using components derived from the in vivo production of phytoene and phytoene desaturase proteins. […]
# [2] = test system: Hydrilla PDS Leu^425 → Pro; assay: Fluridone enzyme inhibition assay, other substitutions (Table 3); type: biochemical, Hydrilla verticillata
# Description: (§1) To explore whether mutations at positions other than 304 of the hydrilla PDS enzyme and corresponding positions of other plant PDS enzymes also confer herbicide resistance, mutations discovered in Synechococcus strain PCC7942 (Leu^320→Pro; Val^403→Gly; Leu^436→Arg) were introduced into the hydrilla PDS sequence at the corresponding locations, and the resulting PDS enzymes tested for resistance.
# (§2) Phytoene desaturase activity and its inhibition by herbicides was determined using an in vitro system using components derived from the in vivo production of phytoene and phytoene desaturase proteins. All mutations described in Examples 3 and 4 were tested. […] The clones were used for the heterologous expression of Hydrilla-PDS-enzyme. In particular, bacterial cultures were grown from single colonies overnight in Wu-broth (6.27 g/L K2HPO4, 1.8 g/L KH2PO4, 0.5 g/L Na-citrate, 0.9 g/L (NH4)2SO4, 10 g/L tryptone, 5 g/L yeast extract, 10 g/L NaCl, 44 ml/L glycerol, 0.1 mM MgSO4, pH 7.2) with kanamycin. 1-mL was aliquoted in centrifuge tube and stored at −80° C. For expression, 1 L LB-medium with kanamycin was inoculated with 1-mL Wu-culture and grown for 24 h at 37° C. to stationary phase with shaking at 200 rpm. The cells were collected by centrifugation at 2000×g. All of the following steps were done at 4° C. unless otherwise noted. Active soluble PDS enzyme was extracted by lysing the transformed E. coli cells using a French Press at 20,000 psi in assay buffer consisting of 100 mM Tris-HCl, pH 7.2, 10 mM magnesium-chloride, 0.1 mM NADP, 0.1 mM FAD, 10 mM cysteine, 5 mM DTT, 1 mM aminocaproic acid, and 1 μg/ml leupeptin. The soluble fraction containing PDS activity was obtained by centrifugation for 10 min at 1200×g. After 24 h they were centrifuged down and used in PDS enzyme activity assays as described below.
# (§3) Generally, PDS protein fractions prepared as described above (Non-His-tagged and His-tagged) were mixed with a soluble fraction from phytoene-producing E. coli cells. […]
# [3] = test system: Hydrilla PDS Val^509 → Gly; assay: as above; type: biochemical, Hydrilla verticillata
# Description: as §1, §2, §3
# [4] = target: T1, maize PDS Arg→His at position 292 (Zea mays, UniProt P49086, R292H); assay: Mutant maize PDS enzyme resistance test; type: biochemical
# T1 construct: vector-encoded N-terminal residues of pBluescript SK+ (in-frame fusion); made in house; host or cells: E. coli TOP10 (clone pMPDS3-33 from E. T. Wurtzel, mutagenised in house)
# Text: The same mutagenesis procedure as described in the Examples above was used to convert the same key arginine amino acid (position 292, sequence ID No. 6) to histidine in corn PDS. Mutagenesis primers are listed below. A maize cDNA clone of PDS, that actively expressed PDS (basically sequence U37285 ligated in frame into pBluescript SK^+ and cloned in TOP10-cells) was provided by Eleanore T. Wurtzel, N Y (pMPDS3-33 as described in Z H Li, P D Matthews, B Burr & E T Wurtzel: Cloning and characterization of a maize cDNA encoding phytoene desaturase, an enzyme of the carotenoid biosynthetic pathway. Plant Molecular Biology 30: 269-279, 1996).
# The resulting mutant maize PDS polynucleotide and protein were tested generally as described in Example 5 above. The mutant maize PDS enzyme ehxibited 50-fold to 60-fold resistance factor as compared to the wild type maize PDS enzyme.
# [5] = test system: Synechocystis PDS with mutation corresponding to Leu^542→Arg; settings: prior work; cited from earlier work
# Hydrilla PDS Arg^304 Arginine (wildtype), sequence (Q66PY0 1-580): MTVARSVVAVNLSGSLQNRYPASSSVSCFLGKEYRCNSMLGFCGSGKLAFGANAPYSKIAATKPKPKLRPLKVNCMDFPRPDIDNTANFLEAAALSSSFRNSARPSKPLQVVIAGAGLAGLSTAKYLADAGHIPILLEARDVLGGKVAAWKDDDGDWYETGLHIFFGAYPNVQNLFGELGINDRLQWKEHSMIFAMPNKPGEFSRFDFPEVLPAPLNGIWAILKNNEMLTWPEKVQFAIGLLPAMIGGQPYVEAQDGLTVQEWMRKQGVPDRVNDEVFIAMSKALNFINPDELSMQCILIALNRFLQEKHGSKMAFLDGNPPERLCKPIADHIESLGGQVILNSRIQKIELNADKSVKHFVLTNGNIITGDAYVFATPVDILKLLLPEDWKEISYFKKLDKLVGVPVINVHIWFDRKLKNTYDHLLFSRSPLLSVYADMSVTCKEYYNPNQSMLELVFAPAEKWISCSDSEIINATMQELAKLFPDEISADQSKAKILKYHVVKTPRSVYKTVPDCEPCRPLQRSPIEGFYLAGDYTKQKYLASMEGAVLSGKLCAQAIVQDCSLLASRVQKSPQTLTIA
# T1 sequence (P49086 97-571 R292H): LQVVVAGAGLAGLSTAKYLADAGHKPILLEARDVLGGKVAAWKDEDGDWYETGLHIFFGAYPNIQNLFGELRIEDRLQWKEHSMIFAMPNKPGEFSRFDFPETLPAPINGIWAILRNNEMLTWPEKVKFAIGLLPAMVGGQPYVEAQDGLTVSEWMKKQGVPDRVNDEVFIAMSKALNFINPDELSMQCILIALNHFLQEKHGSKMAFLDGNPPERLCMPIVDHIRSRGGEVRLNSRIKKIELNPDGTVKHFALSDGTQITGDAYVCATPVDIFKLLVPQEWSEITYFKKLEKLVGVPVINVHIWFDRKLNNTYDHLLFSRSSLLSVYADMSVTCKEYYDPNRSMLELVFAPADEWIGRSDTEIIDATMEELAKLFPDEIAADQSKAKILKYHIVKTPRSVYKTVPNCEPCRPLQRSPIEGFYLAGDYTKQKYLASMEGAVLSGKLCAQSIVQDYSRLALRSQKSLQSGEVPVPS
substance,measurement,setting,value
Fluridone,R/S,[1],1
same,R/S,[2],1.6
same,R/S,[3],14.5
same,resistance of modified maize PDS enzyme vs wild-type maize PDS enzyme,[4],substantially more resistant
same,resistance provided by the mutation,[5],failed to provide resistance
